Assays:
Experiment in all cases: relative viability (nuclei count vs DMSO), 5 days (fraction); higher = more cells survive
[1] = system: NCI-H3122
Procedure, shortened: (§1)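 Relative viability is defined as nuclei in treated wells over nuclei in vehicle wells. Duplicate plates were run and medians reported. Lung cancer cell lines in 1536-well plates were dosed by pin tool one day after seeding, with one drug or with a fixed anchor-drug dose plus five library-drug doses (not always all listed) in √10 steps, and nuclei were counted after 5 days.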

[2] = system: NCI-H661
Procedure, shortened: as §1

[3] = system: ChaGo-K-1
Procedure, shortened: as §1

[4] = system: H3255
Procedure, shortened: as §1

[5] = system: NCI-H2228
Procedure, shortened: as §1

[6] = system: NCI-H2126
Procedure, shortened: as §1

[7] = system: SW 900
Procedure, shortened: as §1

[8] = system: SK-LU-1
Procedure, shortened: as §1

[9] = system: NCI-H650
Procedure, shortened: as §1

[10] = system: EKVX
Procedure, shortened: as §1

[11] = system: NCI-H23
Procedure, shortened: as §1

[12] = system: NCI-H596
Procedure, shortened: as §1

[13] = system: HCC-827
Procedure, shortened: as §1

[14] = system: NCI-H2405
Procedure, shortened: as §1

[15] = system: LCLC-103H
Procedure, shortened: as §1

[16] = system: LOU-NH91
Procedure, shortened: as §1

[17] = system: COR-L 105
Procedure, shortened: as §1

[18] = system: NCI-H727
Procedure, shortened: as §1

[19] = system: PC-3 [JPC-3]
Procedure, shortened: as §1

[20] = system: 201T
Procedure, shortened: as §1

[21] = system: NCI-H1975
Procedure, shortened: as §1

[22] = system: HOP-62
Procedure, shortened: as §1

[23] = system: HARA
Procedure, shortened: as §1

Question: How did the relative viability ([1]; first compound 0.002 µM) turn out when `CCNC(=O)c1noc(-c2cc(C(C)C)c(O)cc2O)c1-c1ccc(CN2CCOCC2)cc1` [Luminespib] + Cc1cc(Nc2cc(N3CCN(C)CC3)nc(Sc3ccc(NC(=O)C4CC4)cc3)n2)n[nH]1 [Tozasertib] (partner 0.1 µM) was run?
Answer: 0.451

Question: What about the relative viability ([1]; first compound 0.006325 µM) of the same compound?
Answer: 0.39

Question: And the relative viability ([1]; first compound 0.02 µM)?
Answer: 0.106

Question: And the relative viability ([1]; first compound 0.06325 µM)?
Answer: 0.0834

Question: And the relative viability ([1]; first compound 0.2 µM)?
Answer: 0.0832

Question: What about the relative viability ([2]; first compound 0.002 µM) of the same compound?
Answer: 0.352

Question: What about the relative viability ([2]; first compound 0.006325 µM) of the same compound?
Answer: 0.358

Question: And the relative viability ([2]; first compound 0.02 µM)?
Answer: 0.348

Question: What about the relative viability ([2]; first compound 0.06325 µM) of the same compound?
Answer: 0.357

Question: And the relative viability ([2]; first compound 0.2 µM)?
Answer: 0.292

Question: And the relative viability ([3]; first compound 0.002 µM)?
Answer: 0.23

Question: What about the relative viability ([3]; first compound 0.006325 µM) of the same compound?
Answer: 0.228

Question: What about the relative viability ([3]; first compound 0.02 µM) of the same compound?
Answer: 0.159

Question: And the relative viability ([3]; first compound 0.06325 µM)?
Answer: 0.186

Question: What about the relative viability ([3]; first compound 0.2 µM) of the same compound?
Answer: 0.201

Question: What about the relative viability ([4]; first compound 0.002 µM) of the same compound?
Answer: 0.7

Question: What about the relative viability ([4]; first compound 0.006325 µM) of the same compound?
Answer: 0.69

Question: And the relative viability ([4]; first compound 0.06325 µM)?
Answer: 0.7

Question: What about the relative viability ([4]; first compound 0.2 µM) of the same compound?
Answer: 0.25

Question: What about the relative viability ([5]; first compound 0.002 µM) of the same compound?
Answer: 0.353

Question: And the relative viability ([5]; first compound 0.006325 µM)?
Answer: 0.274

Question: And the relative viability ([5]; first compound 0.02 µM)?
Answer: 0.139

Question: And the relative viability ([5]; first compound 0.06325 µM)?
Answer: 0.101

Question: And the relative viability ([5]; first compound 0.2 µM)?
Answer: 0.136

Question: And the relative viability ([6]; first compound 0.002 µM)?
Answer: 0.844

Question: What about the relative viability ([6]; first compound 0.006325 µM) of the same compound?
Answer: 0.879

Question: And the relative viability ([6]; first compound 0.02 µM)?
Answer: 0.661

Question: What about the relative viability ([6]; first compound 0.06325 µM) of the same compound?
Answer: 0.5

Question: And the relative viability ([6]; first compound 0.2 µM)?
Answer: 0.264

Question: And the relative viability ([7]; first compound 0.002 µM)?
Answer: 0.638

Question: And the relative viability ([7]; first compound 0.006325 µM)?
Answer: 0.623

Question: What about the relative viability ([7]; first compound 0.02 µM) of the same compound?
Answer: 0.591

Question: What about the relative viability ([7]; first compound 0.06325 µM) of the same compound?
Answer: 0.15

Question: And the relative viability ([7]; first compound 0.2 µM)?
Answer: 0.117

Question: And the relative viability ([8]; first compound 0.002 µM)?
Answer: 0.373

Question: And the relative viability ([8]; first compound 0.006325 µM)?
Answer: 0.313

Question: And the relative viability ([8]; first compound 0.02 µM)?
Answer: 0.292

Question: And the relative viability ([8]; first compound 0.06325 µM)?
Answer: 0.122

Question: And the relative viability ([8]; first compound 0.2 µM)?
Answer: 0.114

Question: What about the relative viability ([9]; first compound 0.002 µM) of the same compound?
Answer: 0.805

Question: And the relative viability ([9]; first compound 0.006325 µM)?
Answer: 0.695

Question: And the relative viability ([9]; first compound 0.02 µM)?
Answer: 0.516

Question: What about the relative viability ([9]; first compound 0.06325 µM) of the same compound?
Answer: 0.199

Question: What about the relative viability ([9]; first compound 0.2 µM) of the same compound?
Answer: 0.0951

Question: And the relative viability ([10]; first compound 0.002 µM)?
Answer: 0.436

Question: And the relative viability ([10]; first compound 0.006325 µM)?
Answer: 0.389

Question: And the relative viability ([10]; first compound 0.06325 µM)?
Answer: 0.346

Question: And the relative viability ([10]; first compound 0.2 µM)?
Answer: 0.165

Question: What about the relative viability ([11]; first compound 0.002 µM) of the same compound?
Answer: 0.333

Question: And the relative viability ([11]; first compound 0.006325 µM)?
Answer: 0.351

Question: What about the relative viability ([11]; first compound 0.02 µM) of the same compound?
Answer: 0.345

Question: What about the relative viability ([11]; first compound 0.06325 µM) of the same compound?
Answer: 0.279

Question: What about the relative viability ([11]; first compound 0.2 µM) of the same compound?
Answer: 0.229

Question: What about the relative viability ([12]; first compound 0.002 µM) of the same compound?
Answer: 0.959

Question: What about the relative viability ([12]; first compound 0.006325 µM) of the same compound?
Answer: 1.01

Question: And the relative viability ([12]; first compound 0.02 µM)?
Answer: 0.804

Question: And the relative viability ([12]; first compound 0.06325 µM)?
Answer: 0.876

Question: What about the relative viability ([12]; first compound 0.2 µM) of the same compound?
Answer: 0.657

Question: What about the relative viability ([13]; first compound 0.002 µM) of the same compound?
Answer: 0.425

Question: And the relative viability ([13]; first compound 0.006325 µM)?
Answer: 0.465

Question: And the relative viability ([13]; first compound 0.02 µM)?
Answer: 0.398

Question: And the relative viability ([13]; first compound 0.06325 µM)?
Answer: 0.41

Question: And the relative viability ([13]; first compound 0.2 µM)?
Answer: 0.193

Question: And the relative viability ([14]; first compound 0.002 µM)?
Answer: 0.812

Question: What about the relative viability ([14]; first compound 0.006325 µM) of the same compound?
Answer: 0.575

Question: What about the relative viability ([14]; first compound 0.02 µM) of the same compound?
Answer: 0.808

Question: And the relative viability ([14]; first compound 0.06325 µM)?
Answer: 0.34

Question: And the relative viability ([14]; first compound 0.2 µM)?
Answer: 0.152

Question: And the relative viability ([15]; first compound 0.002 µM)?
Answer: 0.47

Question: What about the relative viability ([15]; first compound 0.006325 µM) of the same compound?
Answer: 0.455

Question: And the relative viability ([15]; first compound 0.02 µM)?
Answer: 0.44

Question: And the relative viability ([15]; first compound 0.06325 µM)?
Answer: 0.497

Question: And the relative viability ([15]; first compound 0.2 µM)?
Answer: 0.308

Question: What about the relative viability ([16]; first compound 0.002 µM) of the same compound?
Answer: 0.685

Question: What about the relative viability ([16]; first compound 0.006325 µM) of the same compound?
Answer: 0.664

Question: What about the relative viability ([16]; first compound 0.02 µM) of the same compound?
Answer: 0.428

Question: What about the relative viability ([16]; first compound 0.06325 µM) of the same compound?
Answer: 0.265

Question: And the relative viability ([16]; first compound 0.2 µM)?
Answer: 0.282

Question: What about the relative viability ([17]; first compound 0.002 µM) of the same compound?
Answer: 0.37

Question: And the relative viability ([17]; first compound 0.006325 µM)?
Answer: 0.385

Question: What about the relative viability ([17]; first compound 0.02 µM) of the same compound?
Answer: 0.232

Question: And the relative viability ([17]; first compound 0.06325 µM)?
Answer: 0.465

Question: What about the relative viability ([17]; first compound 0.2 µM) of the same compound?
Answer: 0.191

Question: And the relative viability ([18]; first compound 0.002 µM)?
Answer: 0.61

Question: What about the relative viability ([18]; first compound 0.006325 µM) of the same compound?
Answer: 0.614

Question: And the relative viability ([18]; first compound 0.02 µM)?
Answer: 0.505

Question: And the relative viability ([18]; first compound 0.06325 µM)?
Answer: 0.314

Question: And the relative viability ([18]; first compound 0.2 µM)?
Answer: 0.291

Question: And the relative viability ([19]; first compound 0.002 µM)?
Answer: 0.892

Question: What about the relative viability ([19]; first compound 0.006325 µM) of the same compound?
Answer: 0.845

Question: What about the relative viability ([19]; first compound 0.02 µM) of the same compound?
Answer: 0.801

Question: What about the relative viability ([19]; first compound 0.06325 µM) of the same compound?
Answer: 0.656

Question: What about the relative viability ([19]; first compound 0.2 µM) of the same compound?
Answer: 0.375

Question: And the relative viability ([20]; first compound 0.002 µM)?
Answer: 0.988

Question: What about the relative viability ([20]; first compound 0.006325 µM) of the same compound?
Answer: 0.907

Question: What about the relative viability ([20]; first compound 0.02 µM) of the same compound?
Answer: 0.665

Question: What about the relative viability ([20]; first compound 0.06325 µM) of the same compound?
Answer: 0.89

Question: And the relative viability ([20]; first compound 0.2 µM)?
Answer: 0.849

Question: What about the relative viability ([21]; first compound 0.002 µM) of the same compound?
Answer: 0.759

Question: What about the relative viability ([21]; first compound 0.006325 µM) of the same compound?
Answer: 0.745

Question: What about the relative viability ([21]; first compound 0.02 µM) of the same compound?
Answer: 0.603

Question: What about the relative viability ([21]; first compound 0.06325 µM) of the same compound?
Answer: 0.1

Question: And the relative viability ([21]; first compound 0.2 µM)?
Answer: 0.093

Question: And the relative viability ([22]; first compound 0.002 µM)?
Answer: 0.363

Question: And the relative viability ([22]; first compound 0.006325 µM)?
Answer: 0.352

Question: And the relative viability ([22]; first compound 0.02 µM)?
Answer: 0.403

Question: What about the relative viability ([22]; first compound 0.06325 µM) of the same compound?
Answer: 0.389

Question: What about the relative viability ([22]; first compound 0.2 µM) of the same compound?
Answer: 0.232

Question: What about the relative viability ([23]; first compound 0.002 µM) of the same compound?
Answer: 0.158

Question: What about the relative viability ([23]; first compound 0.006325 µM) of the same compound?
Answer: 0.103

Question: What about the relative viability ([23]; first compound 0.02 µM) of the same compound?
Answer: 0.106

Question: And the relative viability ([23]; first compound 0.06325 µM)?
Answer: 0.172

Question: What about the relative viability ([23]; first compound 0.2 µM) of the same compound?
Answer: 0.339
